Compound in the test “Trametinib + Decitabine”: CC(=O)Nc1cccc(-n2c(=O)n(C3CC3)c(=O)c3c(Nc4ccc(I)cc4F)n(C)c(=O)c(C)c32)c1 [Trametinib] + Nc1ncn([C@H]2C[C@H](O)[C@@H](CO)O2)c(=O)n1 [Decitabine] (partner 2 µM)
Briefly: relative viability (nuclei count vs DMSO), 5 days (fraction); higher = more cells survive. In a few lines:
(§1)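 Lung cancer cell lines in 1536-well plates got either a single drug or a fixed anchor-drug dose together with five library-drug doses (not always all listed) in √10 steps, by pin tool, on the day after seeding. Nuclei were counted after 5 days, and relative viability is the treated-to-vehicle ratio of nuclei counts. Values are medians of duplicate plates.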

Compound in test [1]: CN1C=C(C2=CC=CC=C21)/C=C\3/C4=C(C=CC=N4)NC3=O + CC(=O)Nc1cccc(-n2c(=O)n(C3CC3)c(=O)c3c(Nc4ccc(I)cc4F)n(C)c(=O)c(C)c32)c1 [Trametinib] (partner 0.02 µM)
Described as above. In a few lines: as §1

The values that follow come from the supplement of paper PMC10307832.

Turning to COR-L 105, the relative viability with Trametinib + Decitabine (first compound 0.0025 µM) was 0.64; in the test with Trametinib + Decitabine (first compound 0.007906 µM), 0.609; in the test with Trametinib + Decitabine (first compound 0.025 µM), 0.486; with Trametinib + Decitabine (first compound 0.07906 µM) it was 0.375; in the test with Trametinib + Decitabine (first compound 0.25 µM), 0.36; in test [1] (first compound 0.02 µM), 0.402. Moreover, the relative viability in test [1] (first compound 0.06325 µM) was 0.462; in test [1] (first compound 0.2 µM) it was 0.396; in test [1] (first compound 0.6325 µM), 0.512; in test [1] (first compound 2 µM), 0.506.
As to NCI-H1755, the relative viability with Trametinib + Decitabine (first compound 0.0025 µM) was found to be 0.72; with Trametinib + Decitabine (first compound 0.007906 µM), 0.703; in the test with Trametinib + Decitabine (first compound 0.025 µM) it was 0.679; with Trametinib + Decitabine (first compound 0.07906 µM), 0.678; with Trametinib + Decitabine (first compound 0.25 µM), 0.594; in test [1] (first compound 0.02 µM), 0.782. Further, the relative viability in test [1] (first compound 0.06325 µM) was 0.83; in test [1] (first compound 0.2 µM) it was 0.76; in test [1] (first compound 0.6325 µM) it was 0.737; in test [1] (first compound 2 µM), 0.696.
For NCI-H2085, the relative viability worked out at 0.544 with Trametinib + Decitabine (first compound 0.0025 µM); 0.558 with Trametinib + Decitabine (first compound 0.007906 µM); 0.552 with Trametinib + Decitabine (first compound 0.025 µM); 0.629 with Trametinib + Decitabine (first compound 0.07906 µM); 0.61 with Trametinib + Decitabine (first compound 0.25 µM); 0.504 in test [1] (first compound 0.02 µM). For the same cell line, the relative viability in test [1] (first compound 0.06325 µM) came out at 0.514; in test [1] (first compound 0.2 µM), 0.513; in test [1] (first compound 0.6325 µM) it was 0.445; in test [1] (first compound 2 µM) it was 0.408.
With NCI-H2023, the relative viability turned out to be 0.211 with Trametinib + Decitabine (first compound 0.0025 µM); 0.187 in the test with Trametinib + Decitabine (first compound 0.007906 µM); 0.237 in the test with Trametinib + Decitabine (first compound 0.025 µM); 0.207 in the test with Trametinib + Decitabine (first compound 0.07906 µM); 0.154 with Trametinib + Decitabine (first compound 0.25 µM); 0.528 in test [1] (first compound 0.02 µM). The relative viability in test [1] (first compound 0.06325 µM) worked out at 0.571; in test [1] (first compound 0.6325 µM), 0.378; in test [1] (first compound 2 µM), 0.43.
For the cell line HOP-62, the relative viability in the test with Trametinib + Decitabine (first compound 0.0025 µM) worked out at 0.199; in the test with Trametinib + Decitabine (first compound 0.007906 µM) it was 0.229; in the test with Trametinib + Decitabine (first compound 0.025 µM), 0.252; with Trametinib + Decitabine (first compound 0.07906 µM) it was 0.235; with Trametinib + Decitabine (first compound 0.25 µM), 0.227; in test [1] (first compound 0.02 µM), 0.424. The relative viability in test [1] (first compound 0.06325 µM) was 0.415; in test [1] (first compound 0.6325 µM), 0.354; in test [1] (first compound 2 µM), 0.325.
